Counter-ions that a name gives are not always drawn.
Assays:
[1] = Retention/elution of gentamicin from adhesive composition matrix (HPLC); format: physicochemical; conditions: 2.5% w/w or 5% w/w gentamicin, PBS, 37° C., 10 days incubation
Protocol: Several formulations of compositions comprising antibiotics (AB) were investigated. The retention of the AB within the compositions may avoid or prevent bacterial colonization on or within the cured adhesive composition or any post-operative infection that could develop. The retention study was analyzed using elution studies, wherein high-pressure liquid chromatography (HPLC) was used to analyze the amount of AB released over time. Particularly, the elution profile of gentamicin from adhesive composition matrix was analyzed at days 1, 3, 5 and 10.
Several compositions were tested by adding either 2.5% w/w or 5% w/w of gentamicin to the tetracalcium phosphate and phosphoserine powder blend. Each cylinder was immersed in a polypropylene tube with 5 ml phosphate buffered saline (PBS) and shaken in a rotator at 37° C. Over the study period of 10 days, daily transfer of the cement cylinder into a test tube with PBS was conducted after saline washings. Elution samples of PBS was collected at various time points over a period of 10 days. The control was adhesive composition with no gentamicin, and the standard was different concentration of gentamicin alone.

[2] = format: physicochemical
Protocol: Several formulations of compositions comprising pain relievers (e.g., locally acting analgesics (e.g., naproxen and diclofenac) or local anesthetics (e.g. bupivacaine and articaine) were investigated for their affinity to the adhesive composition. The affinity of the therapeutic depends on the nature of the therapeutic and its interaction with the composition. This is measured as the partition coefficient which is the ratio of the amount of drug released from the composition to the ratio of the amount of drug retained in the composition under specific conditions.
The specific composition (e.g., adhesive composition) comprised 400 mg tetracalcium phosphate, 250 mg phosphoserine (a compound in FIG. 1V-a), and 135 μl of water that was prepared by mixing for 30 seconds, after which the mixture was formed into standard spherical substrates and allowed to cure. The substrate was then crushed using a mortar and pestle and used as a control. For the composition comprising a therapeutic, 1% w/w of the therapeutic was added to the tetracalcium phosphate and phosphoserine powder blend. The therapeutic was thoroughly mixed with tetracalcium phosphate and phosphoserine, after which deionized water was added and mixed for 30 seconds. Standard spherical substrates approximately 8 mm in diameter of adhesive composition were prepared. After curing, the substrate was crushed using mortar and pestle and the samples were incubated in 50 mL 1× PBS solution for 18 hours at 37° C. The partition coefficient of the therapeutic was evaluated using high-pressure liquid chromatography (HPLC) as shown in Table 3 below.

[3] = Properties of exemplary adhesive compositions (compound + tetra-calcium phosphate + water); format: physicochemical; conditions: mixed with tetra-calcium phosphate and water
Protocol: Exemplary adhesive compositions were prepared by providing the compounds listed in Table 1 and tetra-calcium phosphate in a suitable receptacle and mixing with water to achieve the desired consistency. While water was used as the aqueous medium in the present compositions, the aqueous medium may instead be blood, saliva, serum, or a blood-based solution or suspension. In the present compositions, the solid components (compounds, tetra-calcium phosphate) were provided as particles. However, the solid components listed in the table may be provided in particle, granule, or fiber form, and the size of each of the components may vary as described in the Detailed Description. In some embodiments, the resulting properties, such as working and setting time, may be affected by these changes. The specific mean particle, granule, or fiber size for each solid component was selected to satisfy the use requirements as described in each of the embodiments.
The compounds comprising glyphosine, O-Phospho-L-serine (OPLS), […] […] After mixing, the compositions described were applied to the desired site and the adhesive properties examined, e.g., for tensile strength and durability.

[4] = Release of bupivacaine from porous adhesive composition formulation (HPLC elution); format: physicochemical; conditions: 10% w/w drug, 50 mL 1x PBS, 7-day period, 37° C.
Protocol: Several formulations of compositions comprising pain relievers (e.g., local anesthetics (e.g. bupivacaine)) were investigated. […] The release study was analyzed using elution studies, where HPLC was used to analyze the amount of pain reliever released over time. The elution profile of bupivacaine from a porous adhesive composition matrix was analyzed over a 7-day period.
The particle size of calcium carbonate was between 15 nm to 40 nm. This formulation was used a control for the study. […] A bupivacaine formulation was tested by adding 10% w/w of the drug to the tetracalcium phosphate and phosphoserine powder blend. Standard spherical substrates of approximately 8 mm in diameter of porous adhesive bone regenerative were prepared. After curing, the samples were incubated in 50 mL 1× PBS solution for 7-days at 37° C.

[5] = 8% w/w naproxen, ssNMR

| Partition coefficient [2] | Molecule | Properties of the adhesive composition prepared with the compound [3] | also measured |
| --- | --- | --- | --- |
| – | gentamicin | – | Retention of gentamicin in the adhesive composition [1]: most of gentamicin was retained |
| 0.103 | O=C(O)Cc1ccccc1Nc1c(Cl)cccc1Cl [Diclofenac•Na] | – | – |
| – | N[C@@H](COP(=O)(O)O)C(=O)O [O-Phospho-L-serine, O-Phospho-L-Serine] | injectable, adhesive, tacky, and self-setting | – |
| 0.37 | CCCCN1CCCCC1C(=O)Nc1c(C)cccc1C (stereo not drawn) [Bupivacaine•HCl] | – | % bupivacaine release, porous vs non-porous formulation [4]: remarkable increase |
| – | O=C(O)CN(CCN(CC(=O)O)CC(=O)O)CC(=O)O [ethylenediaminetetraacetic acid, Ethylenediamine tetraacetic acid] | injectable, adhesive, tacky, and self-setting | – |
| – | O=C(O)CN(CP(=O)(O)O)CP(=O)(O)O [glyphosine, N,N-Bis(phosphonomethyl)glycine] | injectable, adhesive, tacky, and self-setting | – |
| – | COc1ccc2cc([C@H](C)C(=O)O)ccc2c1 [Naproxen] | – | Elution of naproxen from the adhesive composition ([5]; crushed, 10 mL 1x PBS, 4-days, 37° C.): almost fully eluted; Modification of chemical structure upon inclusion in the adhesive composition [5]: no modification of the naproxen chemical structure |
| 0 | CC(C)Cc1ccc(C(C)C(=O)O)cc1 (stereo not drawn) [Ibuprofen] | – | – |
| 0.61 | CC(=O)Oc1ccccc1C(=O)O [Aspirin] | – | – |
| – | O=P(O)(O)CN(CP(=O)(O)O)CP(=O)(O)O [aminotris(methylenephosphonic acid), (Nitrilotris(methylene)) triphosphonic acid] | injectable, adhesive, tacky, and self-setting | – |
